# Entries after “also recorded” stand apart in the source; their conditions may differ.
# What was measured:
# Assay type in all cases: biochemical
# LYPLA1 = molecular target: T1, LYPLA1 (Mus musculus, UniProt P97823); experiment: Gel-based competitive ABPP in vitro, mouse brain membrane proteome; details: 30 min, one replicate; for inhibition at 1 µM: 1 μM compound, read-out: LYPLA1 % INH 1 μM; for inhibition at 10 µM: 10 μM compound, read-out: LYPLA1 % INH 10 μM; for inhibition at 100 µM: 100 μM compound, read-out: LYPLA1 % INH 100 μM; for inhibition at 0.1 µM: 0.1 μM compound, read-out: LYPLA1 % INH 0.1 μM
# T1 construct: a complex proteome endogenously expressing LYPLA1/2 was incubated with test compound; from tissue; host or cells: mouse brain, membrane fraction
# Method: (§1) Assay Overview: The purpose of this assay was to determine whether test compounds can inhibit LYPLA1 and LYPLA2 in a complex proteomic lysate and to assess anti-target inhibition using a competitive activity-based proteomic profiling (ABPP) assay. In this assay, a complex proteome endogenously expressing LYPLA1/2 was incubated with test compound followed by reaction with a rhodamine-conjugated fluorophosphonate (FP-Rh) serine-hydrolase specific activity-based probe. The reaction products were separated by SDS-PAGE and visualized in-gel using a flatbed fluorescence scanner. The percentage activity remaining was determined by measuring the integrated optical density of the bands. […] Percent inhibition was calculated relative to a DMSO (no compound) control.
# (§2) Protocol Summary: Mouse brain membrane proteome (50 μL reaction volume, 1 mg/mL in DPBS) was treated with 0.1-100 μM test compound (1 μL of a 50× stock in DMSO) for 30 minutes at 37° C. FP-Rh (1 μL of 50× stock in DMSO, Thermo #88318) was added to a final concentration of 2 μM. The reactions were incubated for 30 minutes at 25° C., quenched with 16 μL 4×SDS-PAGE loading buffer (reducing), separated by SDS-PAGE and visualized by in-gel fluorescent scanning. The percentage activity remaining was determined by measuring the integrated optical density of the bands relative to a DMSO-only (no compound) control. Assay Cutoff: Compounds with ≥50% inhibition of targets at 1 μM test compound concentration were considered active.
# (§3) N-Hydroxy bicyclic hydantoin carbamates (Compounds 1-20) listed in Table 1 were subjected to gel-based competitive ABPP screening to assess SH reactivity against more than 20 FP-sensitive SHs visible by 1D SDS-PAGE separation and fluorescent detection in the mouse brain proteome (see FIG. 1). […] Compound treatment ([…], 30 minutes) was followed by labeling with SH-specific ABPP probe FP-Rh (2 μM, 30 minutes), 1D-SDS-PAGE, and in-gel fluorescent visualization of FP-labeled proteins. Assignment of LYPLA1/2 bands was based on correlation of molecular weights, expression and inhibition profiles with LC-MS/MS data and recombinant enzyme expression. Proteins were listed as anti-targets if at least 50% inhibition was observed as quantified relative to the DMSO control.
# (§4) Compounds 1-20 were subjected to gel-based competitive ABPP profiling to assess potency and selectivity against several dozen FP-sensitive SHs in the mouse brain membrane proteome, which endogenously expresses LYPLA1 and LYPLA2, as well a diversity of potential SH anti-targets. Compounds were tested at 100 μM, 10 μM, 1 μM, and/or 0.1 μM compound concentration.
# LYPLA2 = molecular target: T2, LYPLA2 (Mus musculus, UniProt Q9WTL7); experiment: as above; details: 30 min, one replicate; for inhibition at 1 µM: 1 μM compound, read-out: LYPLA2 % INH 1 μM; for inhibition at 10 µM: 10 μM compound, read-out: LYPLA2 % INH 10 μM; for inhibition at 100 µM: 100 μM compound, read-out: LYPLA2 % INH 100 μM; for inhibition at 0.1 µM: 0.1 μM compound, read-out: LYPLA2 % INH 0.1 μM
# T2 construct: a complex proteome endogenously expressing LYPLA1/2 was incubated with test compound; from tissue; host or cells: mouse brain, membrane fraction
# Method: as §1, §2, §3, §4
# [1] = test system: FP-sensitive SHs in the mouse brain membrane proteome; experiment: Gel-based competitive ABPP in vitro, mouse brain membrane proteome, anti-targets; details: for Anti-target(s) 0.1 μM: SHs with at least 50% inhibition at 0.1 μM compound; for Anti-target(s) 1 μM: SHs with at least 50% inhibition at 1 μM compound; for Anti-target(s) 10 μM: SHs with at least 50% inhibition at 10 μM compound; for Anti-target(s) 100 μM: SHs with at least 50% inhibition at 100 μM compound
# Method: as §1, §2, §3, §4
# T1 sequence (P97823 whole entry): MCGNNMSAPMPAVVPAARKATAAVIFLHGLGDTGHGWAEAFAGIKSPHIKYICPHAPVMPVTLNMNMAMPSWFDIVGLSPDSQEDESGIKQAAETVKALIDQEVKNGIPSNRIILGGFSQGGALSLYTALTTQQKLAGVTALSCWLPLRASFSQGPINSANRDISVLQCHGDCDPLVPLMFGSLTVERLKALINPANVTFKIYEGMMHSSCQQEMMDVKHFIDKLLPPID
# T2 sequence (Q9WTL7 whole entry): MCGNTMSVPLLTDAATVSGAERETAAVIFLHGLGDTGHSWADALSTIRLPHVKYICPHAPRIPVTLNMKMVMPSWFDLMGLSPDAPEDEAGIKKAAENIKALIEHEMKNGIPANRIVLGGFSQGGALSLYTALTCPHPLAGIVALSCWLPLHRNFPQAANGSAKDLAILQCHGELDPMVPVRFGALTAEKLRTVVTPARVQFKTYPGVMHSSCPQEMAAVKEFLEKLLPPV
Structure (SMILES),inhibition at 1 µM (LYPLA1) [%],inhibition at 10 µM (LYPLA1) [%],inhibition at 100 µM (LYPLA1) [%],inhibition at 1 µM (LYPLA2) [%],inhibition at 10 µM (LYPLA2) [%],inhibition at 100 µM (LYPLA2) [%],inhibition at 0.1 µM (LYPLA1) [%],inhibition at 0.1 µM (LYPLA2) [%],Anti-target(s) 0.1 μM [1],Anti-target(s) 1 μM [1],Anti-target(s) 10 μM [1],Anti-target(s) 100 μM [1]
"CN(C)c1ccc(C(=O)N2CCN3C(=O)N(OC(=O)N4CCC(CCc5ccc(Cl)cc5)CC4)C(=O)C3C2)cc1 (stereo not drawn) [Compound 10, 7-(4-(dimethylamino)benzoyl)-1,3-dioxohexahydroimidazo[1,5-a]pyrazin-2(3H)-yl4-(4-chlorophenethyl)piperidine-1-carboxylate]",75,100,100,75,100,100,,,,,,
"O=C(Cc1ccccc1)N1CCN2C(=O)N(OC(=O)N3CCC(CCc4ccc(Cl)cc4)CC3)C(=O)C2C1 (stereo not drawn) [Compound 6, 1,3-dioxo-7-(2-phenylacetyl)hexahydroimidazo[1,5-a]pyrazin-2(3H)-yl 4-(4-chlorophenethyl)piperidine-1-carboxylate]",95,100,100,95,100,100,25,25,ABHD6,"FAAH,; also recorded: ABHD6","FAAH,; also recorded: MAGL,; also recorded: ABHD6","FAAH,; also recorded: MAGL,; also recorded: ABHD6"
"CC(C)(C)OC(=O)N1CCN2C(=O)N(OC(=O)N3CCN(CCc4ccccc4)CC3)C(=O)C2C1 (stereo not drawn) [Compound 17, tert-butyl 1,3-dioxo-2-(4-phenethylpiperazine-1-carbonyloxy)hexahydroimidazo[1,5-a]pyrazine-7(1H)-carboxylate]",0,75,90,0,50,75,0,0,ABHD6,ABHD6,ABHD6,"FAAH,; also recorded: ABHD12,; also recorded: ABHD6"
"O=C(ON1C(=O)C2CN(CCc3ccccc3)CCN2C1=O)N1CCC(CCc2ccc(Cl)cc2)CC1 (stereo not drawn) [Compound 12, 1,3-dioxo-7-phenethylhexahydroimidazo[1,5-a]pyrazin-2(3H)-yl 4-(4-chlorophenethyl)piperidine-1-carboxylate]",25,95,100,25,95,100,0,0,ABHD6,ABHD6,"FAAH,; also recorded: ABHD4,; also recorded: MAGL,; also recorded: ABHD6","FAAH,; also recorded: ABHD4,; also recorded: MAGL,; also recorded: ABHD6"
"O=C(ON1C(=O)C2CN(C(=O)c3ccc(F)c([N+](=O)[O-])c3)CCN2C1=O)N1CCC(CCc2ccc(Cl)cc2)CC1 (stereo not drawn) [Compound 9, 7-(4-fluoro-3-nitrobenzoyl)-1,3-dioxohexahydroimidazo[1,5-a]pyrazin-2(3H)-yl 4-(4-chlorophenethyl)piperidine-1-carboxylate]",90,100,100,90,100,100,,,,ABHD6,"FAAH,; also recorded: ABHD12,; also recorded: ABHD6","FAAH,; also recorded: ABHD12,; also recorded: MAGL,; also recorded: ABHD6"
"CC(C)(C)OC(=O)N1CCN2C(=O)N(OC(=O)N3CCOCC3Cc3ccccc3)C(=O)C2C1 (stereo not drawn) [Compound 16, 7-(tert-butoxycarbonyl)-1,3-dioxohexahydroimidazo[1,5-a]pyrazin-2(3H)-yl 3-benzylmorpholine-4-carboxylate]",0,0,0,0,0,0,0,0,none,none,ABHD6,ABHD6
"COC(=O)C1CCN(C(=O)ON2C(=O)C3CN(C(=O)OC(C)(C)C)CCN3C2=O)CC1 (stereo not drawn) [Compound 15, 1-(7-(tert-butoxycarbonyl)-1,3-dioxohexahydroimidazo[1,5-a]pyrazin-2(3H)-yl) 4-methyl piperidine-1,4-dicarboxylate]",0,0,25,0,0,25,0,0,ABHD6,ABHD6,ABHD6,ABHD6

# Now from value to compound, other results behind:
inhibition at 1 µM (LYPLA1) [%],inhibition at 10 µM (LYPLA1) [%],inhibition at 100 µM (LYPLA1) [%],inhibition at 1 µM (LYPLA2) [%],inhibition at 10 µM (LYPLA2) [%],inhibition at 100 µM (LYPLA2) [%],inhibition at 0.1 µM (LYPLA1) [%],inhibition at 0.1 µM (LYPLA2) [%],Structure (SMILES),Anti-target(s) 0.1 μM [1],Anti-target(s) 1 μM [1],Anti-target(s) 10 μM [1],Anti-target(s) 100 μM [1]
0,10,50,0,0,25,0,0,"CC(C)(C)OC(=O)N1CCN2C(=O)N(OC(=O)N3CCC(C(=O)Nc4ccccc4)CC3)C(=O)C2C1 (stereo not drawn) [Compound 19, tert-butyl 1,3-dioxo-2-(4-(phenylcarbamoyl)piperidine-1-carbonyloxy)hexahydroimidazo[1,5-a]pyrazine-7(1H)-carboxylate]",ABHD6,ABHD6,ABHD6,"FAAH,; also recorded: ABHD6"
10,50,60,10,50,60,0,0,"CC(C)(C)OC(=O)N1CCN2C(=O)N(OC(=O)N3CCN(C(c4ccc(Cl)cc4)c4ccc(Cl)cc4)CC3)C(=O)C2C1 (stereo not drawn) [Compound 18, tert-butyl 2-(4-(bis(4-chlorophenyl)methyl)piperazine-1-carbonyloxy)-1,3-dioxohexahydroimidazo[1,5-a]pyrazine-7(1H)-carboxylate]",ABHD6,ABHD6,ABHD6,ABHD6
10,100,100,10,75,100,0,0,"CCN(C(=O)C1CCN(C(=O)ON2C(=O)C3CN(C(=O)OC(C)(C)C)CCN3C2=O)CC1)c1ccccc1 (stereo not drawn) [Compound 20, tert-butyl 2-(4-(ethyl(phenyl)carbamoyl)piperidine-1-carbonyloxy)-1,3-dioxohexahydroimidazo[1,5-a]pyrazine-7(1H)-carboxylate]",ABHD6,ABHD6,ABHD6,ABHD6
